Measured values published in patent US11401271B2, “Fused heterocyclic compound, pyrazole-ring-containing fused heterocyclic compound, agricultural composition containing thereof, and method of using the composition” (SOUTH CHINA AGRICULTURAL UNIVERSITY, priority 2017, dated 2022).
Where a name gives a salt, the structure may show the parent alone.

How the values were obtained:
Assay in all cases: whole plant or invertebrate
Assay type in all cases: in vivo
Spodoptera exigua = settings: 500 ppm; 2nd-instar larvae, leaf immersion feeding
How it was run: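 Leaf immersion feeding: second-instar larvae (about 35 per vessel, triplicate) kept at 28° C on discs treated with 500 ppm test solution in 0.05% Tween-80. Mortality at 24 h, calculated relative to surviving larvae in the solvent control.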

Aphis craccivora = settings: 500 ppm; wingless adults, immersion 5 seconds, counted after 24 hours
How it was run: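 Mortality scored 24 h after treatment as the reduction in live aphids versus a 0.05% Tween-80 control; three replicates, 23° C. Treatment was a 5 s immersion of wingless adults on bean sprouts in 500 ppm test solution containing 0.05% Tween-80, followed by air-drying.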

Plutella xylostella = settings: 500 ppm; 2nd-instar larvae, leaf immersion feeding
How it was run: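 Leaf immersion feeding test: 2nd-instar larvae (about 35 per vessel, 3 replicates) kept at 28° C. on 1.0 cm cabbage discs soaked 5 s in a 500 ppm solution with 0.05% Tween-80. Mortality after 24 h of exposure, calculated relative to live larvae in the Tween-80 control.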

Solenopsis invicta = settings: 100 ppm, water test tube poison-feeding
How it was run: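 Mortality (%) of Solenopsis invicta, computed against live counts in control tubes, was recorded 24 h and 72 h after treatment at 25 °C. Compound was offered by oral feeding in test tubes at 100 ppm, diluted from a 10 g/L DMSO stock into water with 5% honey and 0.05% Tween-80.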

Compound | Spodoptera exigua Mortality (%) (Spodoptera exigua) | Aphis craccivora Mortality (%) (Aphis craccivora) | Plutella xylostella Mortality (%) (Plutella xylostella) | Solenopsis invicta Mortality (%) 24 h (Solenopsis invicta) | Solenopsis invicta Mortality (%) 72 h (Solenopsis invicta)
COC(=O)C1(CC#N)Nc2c([S+]([O-])C(F)(F)F)c(C#N)nn2-c2cncc(Cl)c21 (stereo not drawn) [b-2] | 95% | 100% | 100% | 19% | 93%
CCOC(=O)C1(CC(=O)OC)Nc2c([S+]([O-])C(F)(F)F)c(C#N)nn2-c2cncc(Cl)c21 (stereo not drawn) [b-23] | 95% | 100% | 96% | 10% | 97%
N#Cc1nn2c(c1[S+]([O-])C(F)(F)F)NC(CC(=O)C(F)(F)F)(C(=O)C(F)(F)F)c1c(Cl)cncc1-2 (stereo not drawn) [b-25] | 100% | 100% | 100% | 26% | 100%
N#Cc1nn2c(c1[S+]([O-])C(F)(F)F)NC(Cc1ccccc1)(C(=O)C(F)(F)F)c1c(Cl)cncc1-2 (stereo not drawn) [b-27] | 89% | 100% | 91% | 19% | 100%
COC(=O)CC1(C(=O)C(F)(F)F)Nc2c([S+]([O-])C(F)(F)F)c(C#N)nn2-c2cncc(Cl)c21 (stereo not drawn) [b-28] | 99% | 100% | 100% | 16% | 100%
N#CCC1(C(=O)C(F)(F)F)Nc2c([S+]([O-])C(F)(F)F)c(C#N)nn2-c2cncc(Cl)c21 (stereo not drawn) [b-30] | 85% | 100% | 90% | 25% | 94%
CC(=O)C1(CBr)Nc2c([S+]([O-])C(F)(F)F)c(C#N)nn2-c2cncc(Cl)c21 (stereo not drawn) [b-34] | 87% | 100% | 90% | 10% | 100%
CC(=O)C1(CC(=O)C(F)(F)F)Nc2c([S+]([O-])C(F)(F)F)c(C#N)nn2-c2cncc(Cl)c21 (stereo not drawn) [b-37] | 90% | 99% | 86% | 20% | 94%
CNC1(CC#N)Nc2c([S+]([O-])C(F)(F)F)c(C#N)nn2-c2cncc(Cl)c21 (stereo not drawn) [b-43] | 80% | 89% | 89% | 19% | 90%
N#CCC1(Cl)Nc2c([S+]([O-])C(F)(F)F)c(C#N)nn2-c2cncc(Cl)c21 (stereo not drawn) [b-47] | 85% | 100% | 95% | 18% | 90%
N#Cc1nn2c(c1[S+]([O-])C(F)(F)F)NC(Cl)(CC(F)(F)F)c1c(Cl)cncc1-2 (stereo not drawn) [b-48] | 89% | 100% | 100% | 15% | 90%
COC(=O)C(C)C1Nc2c([S+]([O-])C(F)(F)F)c(C#N)nn2-c2cncc(Cl)c21 (stereo not drawn) [b-66] | 91% | 100% | 96% | 28% | 97%
N#Cc1nn2c(c1[S+]([O-])C(F)(F)F)NC(CC(=O)C(F)(F)F)c1c(Cl)cncc1-2 (stereo not drawn) [b-70] | 95% | 100% | 100% | 44% | 100%
N#CCC1Nc2c([S+]([O-])C(F)(F)F)c(C#N)nn2-c2cncc(Cl)c21 (stereo not drawn) [b-73] | 85% | 100% | 89% | 20% | 90%
N#Cc1nn2c(c1[S+]([O-])C(F)(F)F)NC(Cl)c1c(Cl)cncc1-2 (stereo not drawn) [b-80] | 90% | 100% | 95% | 14% | 90%
CC=CC1Nc2c([S+]([O-])C(F)(F)F)c(C#N)nn2-c2cncc(Cl)c21 (stereo not drawn) [b-86] | 89% | 100% | 96% | 20% | 97%
COC(=O)C1Nc2c([S+]([O-])C(F)(F)F)c(C(F)(F)F)nn2-c2cncc(Cl)c21 (stereo not drawn) [b-87, 6-chloro-2-trifluoromethyl-3-trifluoromethylsulfinyl-4,5-dihydropyrazole[1,5-α]quinazoline[4,3-e]pyridine-5-methyl formate] | 95% | 100% | 95% | 14% | 100%
COC(=O)CC1Nc2c([S+]([O-])C(F)(F)F)c(C(F)(F)F)nn2-c2cncc(Cl)c21 (stereo not drawn) [b-88] | 100% | 100% | 100% | 25% | 100%
O=C(C1Nc2c([S+]([O-])C(F)(F)F)c(C(F)(F)F)nn2-c2cncc(Cl)c21)C(F)(F)F (stereo not drawn) [b-94] | 90% | 100% | 100% | 20% | 100%
CNC(=O)C1Nc2c([S+]([O-])C(F)(F)F)c(C(F)(F)F)nn2-c2cncc(Cl)c21 (stereo not drawn) [b-99] | 85% | 100% | 91% | 24% | 90%
[O-][S+](c1c(C(F)(F)F)nn2c1NC(Br)c1c(Cl)cncc1-2)C(F)(F)F (stereo not drawn) [b-104] | 96% | 100% | 96% | 20% | 96%
COC(=O)CC1Nc2c(OC(F)(F)F)c(C#N)nn2-c2cncc(Cl)c21 (stereo not drawn) [b-111] | 100% | 100% | 100% | 24% | 100%
N#Cc1nn2c(c1OC(F)(F)F)NC(CC(=O)C(F)(F)F)c1c(Cl)cncc1-2 (stereo not drawn) [b-116] | 98% | 100% | 100% | 20% | 100%
N#Cc1nn2c(c1OC(F)(F)F)NC(C#N)c1c(Cl)cncc1-2 (stereo not drawn) [b-118] | 91% | 100% | 99% | 14% | 99%
CNC(=O)CC1Nc2c(OC(F)(F)F)c(C#N)nn2-c2cncc(Cl)c21 (stereo not drawn) [b-123] | 95% | 100% | 99% | 24% | 100%
CC(C)C1Nc2c(OC(F)(F)F)c(C#N)nn2-c2cncc(Cl)c21 (stereo not drawn) [b-131] | 95% | 100% | 95% | 11% | 100%
COC(=O)CC1(C(=O)OC)Nc2c(C#N)c(C(F)(F)F)nn2-c2cncc(Cl)c21 (stereo not drawn) [b-136] | 100% | 100% | 100% | 20% | 97%
COC(=O)CC1(C(=O)OC)Nc2c(C(F)(F)F)c(C#N)nn2-c2cc(C(F)(F)F)cc(Cl)c21 (stereo not drawn) [c-2] | 90% | 100% | 95% | 20% | 97%
COC(=O)CC1(C(=O)OC)Nc2c(C#N)c(C(F)(F)F)nn2-c2cc(C(F)(F)F)cc(Cl)c21 (stereo not drawn) [c-4] | 100% | 100% | 97% | 29% | 93%
COC(=O)C1(CC(=O)OCC(F)(F)F)Nc2c([S+]([O-])C(F)(F)F)c(C#N)nn2-c2cc(C(F)(F)F)cc(Cl)c21 (stereo not drawn) [c-19] | 100% | 100% | 100% | 20% | 100%
